The subject of series [1] is tumor necrosis factor (α). The series is described as follows: Cytokine induction in human cells: tumor necrosis factor (α) secreted by PBMCs, ELISA. Particulars: PBMC, incubated 18 to 24 hours, TNF determined by ELISA, read-out: Lowest Effective Concentration (μM) Tumor Necrosis Factor. Type of series: cell-based. In outline:
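Human donor PBMCs at final 1.5-2×10^6 cells/mL in RPMI with 10% FBS incubated 18 to 24 h at 37° C. with serially diluted compound, DMSO at most 1% final. Supernatant TNF-α measured by ELISA; value is the lowest concentration inducing TNF.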
(In general: In an ELISA, binding on a coated surface is turned into a signal by an enzyme label.)

For a further series, the system named is interferon (α). The series is described as follows: Cytokine induction in human cells: interferon secreted by PBMCs, ELISA. Conditions: PBMC, incubated 18 to 24 hours, interferon determined by ELISA, read-out: Lowest Effective Concentration (μM) Interferon. Type of series: cell-based. In outline:
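Human donor PBMCs at 1.5-2×10^6 cells/mL final in RPMI with 10% FBS, exposed to serially diluted compound (≤1% DMSO) for 18–24 h at 37 °C, 5% CO2. Supernatant interferon (α) measured by ELISA; value is lowest concentration inducing interferon.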

As a reminder, the melting point is the temperature of the solid-liquid transition. Consider `Nc1nc2ccccc2c2c1ncn2CCCCNC(=O)c1ccc2ncccc2c1` [Example 21, N^6-[4-(4-Amino-1H-imidazo[4,5-c]quinolin-1-yl)butyl]-6-quinolinecarboxamide], for which the melting point was 122 to 127 °C. In addition, the minimal effective concentration in series [1] came to 1.11 µM. Besides, the minimal effective concentration in the series on interferon (α) amounted to 0.12 µM.
`Nc1nc2ccccc2c2c1ncn2CCCCNC(=O)CCCCC1SCC2NC(=O)NC21` (stereo not drawn) [Example 25, N^1-[4-(4-Amino-1H-imidazo[4,5-c]quinolin-1-yl)butyl]-5-(2-oxoperhydrothieno[3,4-d]imidazol-4-yl)pentanamide] returned a melting point of 104 to 106 °C. Besides, the minimal effective concentration in series [1] was over 30 µM. Further, the minimal effective concentration in the series on interferon (α) turned out to be 3.33 µM.
The like results for `CCCCc1nc2c(N)nc3ccccc3c2n1CCNC(=O)CCCCC1SCC2NC(=N)NC21` (stereo not drawn) [Example 26, N^1-[2-(4-Amino-2-butyl-1H-imidazo[4,5-c]quinolin-1-yl)ethyl]-5-(2-iminoperhydrothieno[3,4-d]imidazol-4-yl)pentanamide] were, in that order, 95 to 96 °C, 10 µM and 0.37 µM.
`Nc1nc2ccccc2c2c1ncn2CCCCNC(=O)c1ccc(Cn2c(N3CCCC3)nc3ccccc32)cc1` [Example 8, N^1-[4-(4-Amino-1H-imidazo[4,5-c]quinolin-1-yl)butyl]-4-[(2-tetrahydro-1H -1-pyrrolyl-1H-benzo[d]imidazol-1-yl)methyl]benzamide] returned a melting point of 150 to 153 °C. Moreover, in series [1], the minimal effective concentration is over 30 µM. For the same compound, the minimal effective concentration in the series on interferon (α) worked out at 0.04 µM.
With `Nc1nc2ccccc2c2c1ncn2CCCCNC(=O)c1ccccc1Oc1ccccc1` [Example 14, N^1-[4-(4-Amino-1H-imidazo[4,5-c]quinolin-1-yl)butyl]-2-phenoxybenzamide], the melting point was 93 to 94 °C. In addition, the minimal effective concentration in series [1] was over 30 µM. Further, in the series on interferon (α), the minimal effective concentration is 3.33 µM.
`CCCCc1nc2c(N)nc3ccccc3c2n1CCCCNC(=O)CCCCC1SCC2NC(=O)NC21` (stereo not drawn) [Example 24, N^1-[4-(4-Amino-2-butyl-1H-imidazo[4,5-c]quinolin-1-yl)butyl]-5-(2-oxoperhydrothieno[3,4-d]imidazol-4-yl)pentanamide] came in with a melting point of 214 to 215 °C. The minimal effective concentration in series [1] worked out at 3.33 µM. Moreover, in the series on interferon (α), the minimal effective concentration was found to be 0.12 µM.
The compound `Nc1nc2ccccc2c2c1ncn2CCCCNC(=O)CCCCOc1ccc2[nH]c(=O)[nH]c2c1` [Example 19, N-[4-Amino-1H-imidazo[4,5-c]quinolin-1-yl]butyl-5-[(2-oxo-2,3-dihydro-1H-benzo[d]imidazol-5-yl)oxy]pentamide] returned a melting point of 150 to 157 °C. Also, in series [1], the minimal effective concentration was over 30 µM. Further, in the series on interferon (α), the minimal effective concentration is 10 µM.
In turn, `CCCCc1nc2c(N)nc3ccccc3c2n1CCNC(=O)CCCCC1SCC2NC(=O)NC21` (stereo not drawn) [Example 28, N^1-[2-(4-Amino-2-butyl-1H-imidazo[4,5-c]quinolin-1-yl)ethyl]-5-(2-oxoperhydrothieno[3,4-d]imidazol-4-yl)pentanamide] showed a melting point of 124 to 126 °C. Further, in series [1], the minimal effective concentration is over 30 µM. The minimal effective concentration in the series with interferon (α) turned out to be 0.12 µM.
The matching figures for `Nc1nc2ccccc2c2c1ncn2CCCCNC(=O)c1cccc2cccnc12` [Example 45, N^8-[4-(4-Amino-1H-imidazo[4,5-c]quinolin-1-yl)butyl]-8-quinolinecarboxamide]: 91 to 93 °C, over 30 µM and 3.33 µM.
The like results for `CCCCc1nc2c(N)nc3ccccc3c2n1CCCCCCCCNC(=O)c1ccccc1` [Example 186, N-[8-(4-amino-2-butyl-1H-imidazo[4,5-c]quinolin-1-yl)octyl]benzamide] were, in that order, 149.5 to 151.3 °C, 0.12 µM and 0.04 µM.
Compound `CC(Oc1ccccc1)C(=O)NCCCCn1cnc2c(N)nc3ccccc3c21` (stereo not drawn) [Example 41, N^1-[4-(4-Amino-1H-imidazo[4,5-c]quinolin-1-yl)butyl]-2-phenoxypropanamide] showed a melting point of 85 to 87.5 °C. The minimal effective concentration in series [1] was over 30 µM. Moreover, the minimal effective concentration in the series on interferon (α) is 1.11 µM.
`COCCc1nc2c(N)nc3ccccc3c2n1CCCCCCCCNC(=O)c1ccccc1` [Example 187, N-{8-[4-amino-2-(2-methoxyethyl)-1H-imidazo[4,5-c]quinolin-1-yl]octyl}benzamide]: the melting point lay within 133.4 to 137.5 °C. In series [1], the minimal effective concentration came to 0.01 µM. In addition, in the series on interferon (α), the minimal effective concentration was found to be 0.01 µM.
On to `COc1ccc(C(=O)NCCCCn2cnc3c(N)nc4ccccc4c32)c(OC)n1` [Example 44, N^3-[4-(4-Amino-1H-imidazo[4,5-c]quinolin-1-yl)butyl]-2,6-dimethoxynicotnamide], for which the melting point was 175 to 177 °C. For the same compound, the minimal effective concentration in series [1] was over 30 µM. The minimal effective concentration with interferon (α) came out at 1.11 µM.
Turning to `Cc1nc2c(N)nc3ccccc3c2n1CCCNC(=O)c1ccccc1` [Example 22, N^1-[3-(4-Amino-2-methyl-1H-imidazo[4,5-c]quinolin-1-yl)propyl]benzamide], the melting point was 230 to 231.4 °C. Besides, the minimal effective concentration in series [1] is 10 µM. Besides, the minimal effective concentration with interferon (α) was found to be 0.37 µM.
The like results for `Nc1nc2ccccc2c2c1ncn2CCCCNC(=O)c1ccc(CCl)cc1` [Example 7, N^1-[4-(4-Amino-1H-imidazo[4,5-c]quinolin-1-yl)butyl]-4-(chloromethyl)benzamide] were, in that order, 240 to 300 °C (dec.), over 30 µM and 1.11 µM.
The matching figures for `COCCc1nc2c(N)nc3ccccc3c2n1CCCNC(=O)c1ccccc1` [Example 196, N-{3-[4-amino-2-(2-methoxyethyl)-1H-imidazo[4,5-c]quinolin-1-yl]propyl}benzamide]: 183 to 186 °C, 0.37 µM and 0.01 µM.
`Cc1nc2c(N)nc3ccccc3c2n1CCCCCNC(=O)c1ccccc1` [Example 9, N^1-[5-(4-Amino-2-methyl-1H-imidazo[4,5-c]quinolin-1-yl)pentyl]benzamide]: the melting point was 110 to 120 °C. Further, the minimal effective concentration in series [1] turned out to be 3.33 µM. Further, in the series with interferon (α), the minimal effective concentration amounted to 0.37 µM.
The compound `Nc1nc2ccccc2c2c1nc(CCCOc1ccccc1)n2CCCNC(=O)c1ccccc1` [Example 194, N-{3-[4-amino-2-(3-phenoxypropyl)-1H-imidazo[4,5-c]quinolin-1-yl]propyl}benzamide] came in with a melting point of 192 to 194 °C. In series [1], the minimal effective concentration was 10 µM. Moreover, the minimal effective concentration in the series with interferon (α) is over 30 µM.
In the case of `CCCCc1nc2c(N)nc3ccccc3c2n1CCCNC(=O)c1ccccc1` [Example 189, N-[3-(4-amino-2-butyl-1H-imidazo[4,5-c]quinolin-1-yl)propyl]benzamide], the melting point fell in the range of 189.4 to 190 °C. Moreover, the minimal effective concentration in series [1] turned out to be 0.12 µM. Further, the minimal effective concentration in the series with interferon (α) came out at 0.04 µM.
As for `Nc1nc2ccccc2c2c1ncn2CCNC(=O)CCCCC1SCC2NC(=O)NC21` (stereo not drawn) [Example 27, N^1-[2-(4-Amino-1H-imidazo[4,5-c]quinolin-1-yl)ethyl]-5-(2-oxoperhydrothieno[3,4-d]imidazol-4-yl)pentanamide], the melting point amounted to 169 °C. Further, the minimal effective concentration in series [1] is over 30 µM. Moreover, the minimal effective concentration in the series with interferon (α) was over 30 µM.
In the case of `Nc1nc2ccccc2c2c1ncn2CCCCNC(=O)c1cccc(Oc2ccccc2)c1` [Example 39, N^1-[4-(4-Amino-1H-imidazo[4,5-c]quinolin-1-yl)butyl]-3-phenoxybenzamide], the melting point lay in the range of 105 to 107 °C. Besides, the minimal effective concentration in series [1] is over 30 µM. Also, the minimal effective concentration with interferon (α) turned out to be 3.33 µM.
As to `Nc1nc2ccccc2c2c1ncn2CCCCNC(=O)COc1ccccc1` [Example 35, N^1-[4-(4-Amino-1H-imidazo[4,5-c]quinolin-1-yl)butyl]-2-phenoxyacetamide], the melting point was 61.5 °C (dec.). Moreover, the minimal effective concentration in series [1] is over 30 µM. For the same compound, the minimal effective concentration in the series on interferon (α) was 1.11 µM.
As to `COCCc1nc2c(N)nc3ccccc3c2n1CCCCNC(=O)c1cnc2ccccc2c1` [Example 182, N-{4-[4-amino-2-(2-methoxyethyl)-1H-imidazo[4,5-c]quinolin-1-yl]butyl}quinoline-3-carboxamide], the melting point lay within 114 to 116 °C. Further, the minimal effective concentration in series [1] is 0.01 µM. Further, the minimal effective concentration with interferon (α) was found to be 0.01 µM.
`COCCc1nc2c(N)nc3ccccc3c2n1CCCCNC(=O)c1cnc2ccccc2n1` [Example 183, N-{4-[4-amino-2-(2-methoxyethyl)-1H-imidazo [4,5-c]quinolin-1-yl]butyl}quinoxaline-2-carboxamide] yielded a melting point of 85 to 87 °C. In series [1], the minimal effective concentration was determined as 0.04 µM. In addition, the minimal effective concentration in the series with interferon (α) was determined as 0.01 µM.
The matching figures for `CCOc1ccc2ccccc2c1C(=O)NCCCCn1cnc2c(N)nc3ccccc3c21` [Example 31, N^1-[4-(4-Amino-1H-imidazo[4,5-c]quinolin-1-yl)butyl]-2-ethoxy-1-naphthamide]: 219 °C (dec.), over 30 µM and 1.11 µM.
